Data from patent US20140357512A1, “HISTONE DEACETYLASE (HDAC) BIOMARKERS IN MULTIPLE MYELOMA” (priority 2013, published 2014).

Tested on: human myeloma cell line MM.1S
Assay: SILAC acetylated-lysine peptide profiling, HDAC inhibitor vs DMSO (light/heavy ratio)
Type: cell-based
Description: An embodiment of the invention comprises utilizing the SILAC method in order to quantitate changes in protein expression between two or more populations of cells. The SILAC method is a technique based on mass spectrometry that detects differences in protein abundance among samples using non-radioactive isotopic labeling. The SILAC method is known in the art, and described in detail in Ong et al., “Stable Isotope Labeling by Amino Acids in Cell Culture, SILAC, as a Simple and Accurate Approach to Expression Proteomics”, Molecular & Cellular Proteomics, vol. 1, pp. 376-386 (2002), which is incorporated herein by reference in its entirety.
Briefly, the SILAC method involves growing two populations of cells in cell culture. The first population of cells is grown in growth media containing normal amino acids (“normal media”). The second population of cells is grown in media lacking a standard essential amino acid (such as lysine), but is then supplemented with a non-radioactive, isotopically labeled form of that essential amino acid (such as lysine labeled with ^13C atoms, rather than normal ^12C atoms), which is called “heavy media”. When the two populations of cells are each growing in the medium, they incorporate the amino acids into all of their proteins. The growth of cells maintained in the heavy media is no different from that in normal media. All peptides containing the heavy amino acids are heavier than their normal counterparts. The cells from each of the two populations of cells are lysed. The lysates from each of the two cell populations are then combined. The combined cell lysates are then analyzed by mass spectrometry. Pairs of chemically identical peptides of different stable isotope composition can be differentiated in a mass spectrometer due to their difference in mass. The ratio of peak intensities in the mass spectrum for such peptide pairs reflects the abundance ratio for the two proteins.
This example describes SILAC studies that were performed to compare the effects of three different HDAC inhibitors (Compound A, Compound B, and tubastatin A) to a control on a human multiple myeloma cell line. The HDAC inhibitors were also compared amongst themselves to determine differences in their effects.
A human myeloma cell line MM.1S was grown using either ^12C (light) or ^13C (heavy) lysine containing culture medium. The “heavy” cells were treated with DMSO as the control, and the “light” cells were treated with a single HDAC inhibitor at 37° C. for 6 hours. The heavy and light cells were lysed, and the lysates were mixed in 1:1 ratio and digested with the protease trypsin. The acetylated lysine containing peptides (due to the action of the HDAC inhibitor) in the digested peptide pool were captured by a non-specific anti-acetylated lysine antibody cocktail (the antibodies identify both light and heavy acetylated peptides), and subjected to mass spectrometry analysis in order to identify thousands of individual peptides.
Thousands of peptides were identified in pairs (^12C and ^13C) due to their known mass differences. The amino acid sequence and quantitative ratio (Light/Heavy) of a given peptide in two differentially treated cell lysates were then determined and annotated with their possible protein (gene) sources.
As stated above, three HDAC inhibitors (Compound A, Compound B, and Tubastatin A) were used. Thus, the SILAC method was performed three times, with a different HDAC inhibitor compared to a control each time. Accordingly, there are three pairs of quantitative data in the table below, i.e., Compound A:DMSO, Compound B:DMSO, and Tubastatin A:DMSO. A cut-off of 1.30 fold of change (increase or decrease) was then used to determine “changed” or “+” in the table, and any peptides with a fold of change less than 1.3 fold were determined to be “unchanged” or “0” in the table. Those peptides that were not identified were marked as “NA” in the table. […]

Compound: O=C(NO)c1cnc(NC2(c3cccc(F)c3)CCCCC2)nc1 [Compound B, 2-((1-(3-fluorophenyl)cyclohexyl)amino)-N-hydroxypyrimidine-5-carboxamide]
- L/H ratio of acetylated peptide LDHLAEK(ac)FR (SEQ ID NO: 20) (ACTN1 [398], log 2 scale, drug vs DMSO): 0.00
- L/H ratio of acetylated peptide […](ac)FVYQAK (SEQ ID NO: 126) (ADAR [757], log 2 scale, drug vs DMSO): 0.00
- light to heavy ratio (L/H ratio) of acetylated peptide, log 2 scale (ADINTK(ac)WAATR (SEQ ID NO: 202), Ribosomal protein L14 variant [85], RPL14): 0.00
- light to heavy ratio (L/H ratio) of acetylated peptide, log 2 scale (ADK(ac)DYHFK (SEQ ID NO: 191), Isoform 2 of Nucleophosmin [27], NPM1): 0.00
- light to heavy ratio (L/H ratio) of acetylated peptide TTLLYK(ac)LK (SEQ ID NO: 624) (ADP-ribosylation factor-like protein 11 [31], gene ARL11, inhibitor:DMSO): 0.00 log 2
- light to heavy ratio (L/H ratio) of acetylated peptide IFK(ac)SDGLR (SEQ ID NO: 280) (ADP/ATP translocase 1 [166], SLC25A4, drug:DMSO): 0.00 log 2
- light to heavy ratio (L/H ratio) of acetylated peptide ITK(ac)SDGIR (SEQ ID NO: 587) (ADP/ATP translocase 3 [166], gene SLC25A6, inhibitor:DMSO): 0.00 log 2
- L/H ratio of acetylated peptide (AELSK(ac)LVIVAK (SEQ ID NO: 370), UPF0556 protein C19orf10 [161], C19orf10): 1.00 log 2
- L/H ratio of acetylated peptide HLSDSINQK(ac)HFEQAIER (AFG3L2 [543], log 2 scale, drug vs DMSO): 0.00
- L/H ratio of acetylated peptide (AFQLK(ac)SR (SEQ ID NO: 439), ribonucleoprotein PTB-binding 1 [579], RAVER1): −0.89 log 2
- light to heavy ratio (L/H ratio) of acetylated peptide, log 2 scale (AFYK(ac)SFSK (SEQ ID NO: 170), Endoplasmin [360], HSP90B1): 0.00
- L/H ratio of acetylated peptide (AK(ac)FESMAEEK (SEQ ID NO: 402), Hematopoietic lineage cell-specific protein [241], HCLS1): 1.00 log 2
- light to heavy ratio (L/H ratio) of acetylated peptide, log 2 scale (ALDLNLK(ac)HQILPK (SEQ ID NO: 248), Cytochrome b-c1 complex subunit 7 [72], UQCRB): 0.00
- L/H ratio of acetylated peptide LK(ac)[…] (SEQ ID NO: 21) (ANP32B [101], log 2 scale, drug vs DMSO): 0.00
- L/H ratio of acetylated peptide […](ac)SLYGK (SEQ ID NO: 22) (ANXA6 [63], log 2 scale, drug vs DMSO): 0.00
- L/H ratio of acetylated peptide LGTDESK(ac)FNAVLCSR (SEQ ID NO: 7) (ANXA11 [478], log 2 scale, drug vs DMSO): 0.50
- L/H ratio of acetylated peptide MYFDK(ac)[…] (SEQ ID NO: 23) (ATAD3A [491], log 2 scale, drug vs DMSO): 0.00
- L/H ratio of acetylated peptide (ATAEEMTK(ac)YHSDEYIK (SEQ ID NO: 403), Histone deacetylase 2[161], HDAC2): 0.78 log 2
- L/H ratio of acetylated peptide IVEYEK(ac)EMEK (SEQ ID NO: 24) (ATP5H [117], log 2 scale, drug vs DMSO): 0.00
- L/H ratio of acetylated peptide YYNK(ac)YINVK (SEQ ID NO: 12) (ATP5J2 [54], log 2 scale, drug vs DMSO): −0.43
- light to heavy ratio (L/H ratio) of acetylated peptide QNK(ac)LEQVEK (SEQ ID NO: 271) (ATP synthase subunit O mitochondrial [54], ATP50, drug:DMSO): 0.00 log 2
- light to heavy ratio (L/H ratio) of acetylated peptide ISEQSDAK(ac)LK (SEQ ID NO: 600) (ATP synthase subunit alpha mitochondrial [539], gene ATP5A1, inhibitor:DMSO): 0.00 log 2
- light to heavy ratio (L/H ratio) of acetylated peptide […](ac)ETIAK (SEQ ID NO: 307) (ATP synthase subunit b mitochondrial [233], ATP5F1, drug:DMSO): 0.00 log 2
- light to heavy ratio (L/H ratio) of acetylated peptide […](ac)QLTVK (SEQ ID NO: 279) (ATP synthase subunit g mitochondrial [66], ATP5L, drug:DMSO): 0.00 log 2
- light to heavy ratio (L/H ratio) of acetylated peptide ELDPIQK(ac)LFVDK (SEQ ID NO: 365) (ATP synthase-coupling factor 6 mitochondrial [41], ATP5J, drug:DMSO): −0.48 log 2
- light to heavy ratio (L/H ratio) of acetylated peptide FEDPK(ac)FEVIEKPQA (SEQ ID NO: 325) (ATP synthase-coupling factor 6 mitochondrial [99], ATP5J, drug:DMSO): −0.50 log 2
- light to heavy ratio (L/H ratio) of acetylated peptide, log 2 scale (AVEEK(ac)[…] (SEQ ID NO: 172), 78 kDa glucose-regulated protein [601], HSPA5): 0.00
- L/H ratio of acetylated peptide (AVSMDNSNK(ac)YTK (SEQ ID NO: 396), Forkhead box protein O3 [259], FOXO3): 0.45 log 2
- L/H ratio of acetylated peptide (AYHLQK(ac)STCGK (SEQ ID NO: 443), 60S ribosomal protein L37 [31], RPL37): 0.42 log 2
- light to heavy ratio (L/H ratio) of acetylated peptide NAYVWTLK(ac)GR (SEQ ID NO: 361) (Actin-related protein 2/3 complex subunit 1B [82], ARPC1B, ARPC1A, drug:DMSO): −1.00 log 2
- light to heavy ratio (L/H ratio) of acetylated peptide VFDPQNDK(ac)[…] (SEQ ID NO: 362) (Actin-related protein 2/3 complex subunit 3 [155], ARPC3, drug:DMSO): 0.45 log 2
- light to heavy ratio (L/H ratio) of acetylated peptide AFAK(ac)ELFLGK (SEQ ID NO: 627) (Acyl-CoA dehydrogenase family member 9 mitochondrial [41], gene ACAD9, inhibitor:DMSO): 0.00 log 2
